From patent US4753932A, “Novel 10-substituted steroids” (Roussel Uclaf, priority 1985, dated 1988)
Read-outs that look alike come from different tables or passages of the source.

Legend:
[1] = molecular target: T1, Progestogen receptor of rabbit uterus (Oryctolagus cuniculus, UniProt P06186); experiment: Progestogen receptor of rabbit uterus: relative liaison affinity (RLA), displacement of tritiated Product R; format: binding; settings: for relative liaison affinity (RLA), Progestogen receptor: vs tritiated Product R; for activity for the progestogen receptor (in words): conclusion
T1 construct: Their uterus were removed, weighed and homogenized at 0° C; from tissue; host or cells: 105,000 g supernatant (cytosol) of uterus from estradiol-treated impuberal rabbits
T1 sequence (P06186 1-930): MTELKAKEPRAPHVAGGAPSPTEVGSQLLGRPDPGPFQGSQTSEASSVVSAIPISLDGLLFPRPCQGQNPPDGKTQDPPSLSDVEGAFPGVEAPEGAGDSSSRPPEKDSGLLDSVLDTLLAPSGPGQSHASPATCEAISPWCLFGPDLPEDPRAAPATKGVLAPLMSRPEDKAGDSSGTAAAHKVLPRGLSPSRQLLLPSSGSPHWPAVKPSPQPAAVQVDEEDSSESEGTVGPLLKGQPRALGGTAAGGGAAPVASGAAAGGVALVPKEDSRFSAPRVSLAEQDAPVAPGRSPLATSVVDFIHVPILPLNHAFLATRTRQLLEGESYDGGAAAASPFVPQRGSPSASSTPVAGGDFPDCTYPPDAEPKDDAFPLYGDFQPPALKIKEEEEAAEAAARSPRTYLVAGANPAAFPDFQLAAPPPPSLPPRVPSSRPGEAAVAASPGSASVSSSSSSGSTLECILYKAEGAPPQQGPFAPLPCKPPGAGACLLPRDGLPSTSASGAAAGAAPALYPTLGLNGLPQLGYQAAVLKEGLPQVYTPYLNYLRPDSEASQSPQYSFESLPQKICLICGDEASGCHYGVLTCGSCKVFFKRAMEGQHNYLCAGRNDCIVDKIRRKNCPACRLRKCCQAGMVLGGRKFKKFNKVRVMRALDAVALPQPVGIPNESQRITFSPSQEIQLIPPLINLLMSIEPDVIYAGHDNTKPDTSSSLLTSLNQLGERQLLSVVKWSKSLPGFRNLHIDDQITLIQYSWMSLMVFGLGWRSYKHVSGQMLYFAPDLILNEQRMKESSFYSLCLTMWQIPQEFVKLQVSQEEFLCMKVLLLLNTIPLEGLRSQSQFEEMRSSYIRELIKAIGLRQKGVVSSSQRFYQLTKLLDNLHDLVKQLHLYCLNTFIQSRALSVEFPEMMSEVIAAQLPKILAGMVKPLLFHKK
Protocol: (1) Study of the activity on the hormone receptors
Progestogen receptor of rabbit uterus
Impuberal rabbits of about 1 kg received a cutaneous application of […] of estradiol and 5 days after this treatment, the animals were killed. Their uterus were removed, weighed and homogenized at 0° C. using a Potter teflon-glass in a TS buffered solution (Tris 10 mM, saccharose 0.25M, HCl pH 7.4) (1 g of tissue for 50 ml of TS). The homogenate was then ultracentrifuged at 105,000 g for 90 minutes at 0° C. Aliquots of the supernatant so obtained were incubated at 0° C. for a time t, with a constant concentration (T) of Product R tritiated (17,21-dimethyl-19-nor-Δ^4,9 -pregnadiene-3,20-dione) in the presence of increasing concentrations (0-2,500 10^-9 M) either of R cold, or of cold progesterone, or of the cold product under test. The concentration of tritiated R bonded (B) was then measured in each incubate by the technique of adsorption to dextran-carbon.
(§1) Calculation of the relative liaison affinity
(§2) The calculation of the relative liaison affinity (RLA) was identical for all the receptors. The two following curves were traced: the percentage of tritiated hormone bonded B as a function of the logarithm of the concentration of the cold reference hormone, and B/T as a function of the logarithm of the concentration of the cold product under test. The straight line was determined of the equation [formula] (B/T) max=percentage of tritiated hormone bonded for an incubation of this tritiated hormone at the concentration (T).
(§3) (B/T) min.=percentage of tritiated hormone bonded for an incubation of the tritiated hormone at the concentration (T) in the presence of a great excess of cold hormone (2500.10^-9 M).
(§4) The intersections of the straight line I50 and of the curves enabled the concentrations of the cold reference hormone (CH) and the cold product under test (CX) to be evaluated which inhibit by 50% the bonding of the tritiated hormone on the receptor.
The relative liaison affinity (RLA) of the product under test was determined by the equation [formula] and the following results were obtained: […]

[2] = molecular target: T2, Glucocorticoid receptor of rat thymus (Rattus norvegicus, UniProt P06536); experiment: Glucocorticoid receptor of rat thymus: relative liaison affinity (RLA), displacement of tritiated dexamethasone; format: binding, Male Sprague-Dawley EOPS rats; settings: for relative liaison affinity (RLA), Glucocorticoid receptor: vs tritiated dexamethasone; for affinity for the glucocorticoid receptors (in words): conclusion
T2 construct: Their thymus was removed and homogenized at 0° C; from tissue; host or cells: 105,000 g supernatant (cytosol) of thymus from adrenalectomized male Sprague-Dawley rats
T2 sequence (P06536 1-795): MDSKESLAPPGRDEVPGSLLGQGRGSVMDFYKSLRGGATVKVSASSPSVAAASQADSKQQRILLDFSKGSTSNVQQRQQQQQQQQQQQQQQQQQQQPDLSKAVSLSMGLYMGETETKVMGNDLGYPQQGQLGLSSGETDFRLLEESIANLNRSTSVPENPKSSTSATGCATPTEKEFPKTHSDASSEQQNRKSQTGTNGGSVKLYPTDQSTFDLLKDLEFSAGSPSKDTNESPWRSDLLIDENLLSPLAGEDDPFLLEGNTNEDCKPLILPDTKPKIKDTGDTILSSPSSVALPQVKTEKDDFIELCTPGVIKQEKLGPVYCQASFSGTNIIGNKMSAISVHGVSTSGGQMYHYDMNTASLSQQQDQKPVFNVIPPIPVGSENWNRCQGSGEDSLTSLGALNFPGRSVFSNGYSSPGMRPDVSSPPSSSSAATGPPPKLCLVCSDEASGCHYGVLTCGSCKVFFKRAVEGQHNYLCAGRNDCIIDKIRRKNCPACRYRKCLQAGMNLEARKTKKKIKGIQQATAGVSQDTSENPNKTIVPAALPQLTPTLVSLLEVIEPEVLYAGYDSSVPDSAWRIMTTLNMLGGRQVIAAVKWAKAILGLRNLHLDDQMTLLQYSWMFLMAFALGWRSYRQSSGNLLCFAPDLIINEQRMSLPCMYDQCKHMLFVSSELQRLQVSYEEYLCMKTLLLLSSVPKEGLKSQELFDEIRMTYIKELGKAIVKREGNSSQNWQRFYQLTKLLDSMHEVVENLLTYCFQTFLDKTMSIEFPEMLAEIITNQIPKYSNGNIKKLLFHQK
Protocol: Glucocorticoid receptor of rat thymus:
Their thymus was removed and homogenized at 0° C. in a buffer Tris 10 mM saccharose 0.25M, dithiotreitol 2 mM, HCl pH 7.4, using a Potter polytetrafluoroethylene-glass (1 g of tissue for 10 ml of TS). The homogenate was then ultracentrifuged at 105,000 g for 90 minutes at 0° C. Aliquots of the supernatant so obtained were incubated at 0° C. for a time (t) with a constant concentration (T) of tritiated dexamethasone in the presence of increasing concentrations (0-2,500.10^-9 M) either of cold dexamethasone, or of the cold product under test. The concentration of tritiated dexamethasone bonded (B) was then measured in each incubate by the technique of adsorption to dextran-carbon.
as §1, §2, §3, §4

[3] = test system: Thymocytes of suprarenalectomized rats; experiment: Anti-glucocorticoid activity: inhibition of the effect of dexamethasone on incorporation of tritiated uridine in thymocytes; format: cell-based; settings: for inhibition at 1 µM / inhibition at 0.1 µM / inhibition at 0.01 µM: Thymocyte, read-out: % inhibition of the effect of Dexamethasone
Protocol: (II). Anti-glucocorticoid activity
The technique utilized envolved from the method described by Dausse et al in "Molecular Pharmacology", Vol. 13, p. 948-955 (1977) ("the relationship between glucocorticoid structure and effects upon Thymocytes") for the thymocytes of mice. Thymocytes of suprarenalectomized rats were incubated at 37° C. for 3 hours in a nutritive medium containing 5.10^-8 M of dexamethasone in the presence or not of a product under study at different concentrations. Tritiated uridine was added and the incubation was continued for one hour. The incubates were cooled, then treated with a 5% solution of trichloroacetic acid, filtered on Whatman paper GF/A, and washed three times with a 5% solutioh of trichloroacetic acid. The radio-activity retained by the filter was determined.

[4] = 5.10^-8 M dexamethasone, rat thymocytes
[5] = product at 10^-6 M, 5.10^-8 M dexamethasone, rat thymocytes, 37° C., 3 hours
[6] = product at 10^-7 M, 5.10^-8 M dexamethasone, rat thymocytes, 37° C., 3 hours
[7] = product at 10^-8 M, 5.10^-8 M dexamethasone, rat thymocytes, 37° C., 3 hours

SMILES | relative liaison affinity (RLA), Progestogen receptor ([1]; Incubation time 2 H at 0° C.) | relative liaison affinity (RLA), Progestogen receptor ([1]; Incubation time 24 H at 0° C.) | activity for the progestogen receptor (in words) [1] | relative liaison affinity (RLA), Glucocorticoid receptor ([2]; Incubation time 4 H at 0° C.) | relative liaison affinity (RLA), Glucocorticoid receptor ([2]; Incubation time 24 H at 0° C.) | affinity for the glucocorticoid receptors (in words) [2] | effect on dexamethasone-induced diminution in the incorporation of tritiated uridine (in words) [3, 4] | inhibition at 1 µM [3, 5] [%] | inhibition at 0.1 µM [3, 6] [%] | inhibition at 0.01 µM [3, 7] [%] | inhibition at 0.01 µM ([3]; Rattus norvegicus, 3 h) [%] | inhibition at 0.1 µM ([3]; Rattus norvegicus, 3 h) [%] | inhibition at 1 µM ([3]; Rattus norvegicus, 3 h) [%] | incorporation of tritiated uridine (in words) ([3]; rat thymocytes, dexamethasone)
CC#C[C@]1(O)CC[C@H]2[C@@H]3CCC4=CC(=O)CC[C@]4(Cc4ccccc4)C3=CC[C@@]21C [Example 1, 10β-benzyl-17α-(prop-1-ynyl)-Δ^4,9(11) -estradien-17β-ol-3-one] | 0.1 | 0.1 | negligible activity | 160 | 57 | very marked affinity | oppose this effect | 80 | 55 | 20 | – | – | – | –
CC#C[C@]1(O)CC[C@H]2[C@@H]3CCC4=CC(=O)CC[C@]4(Cc4ccc(C)cc4)C3=CC[C@@]21C [Example 4, 10β-[4-methyl-benzyl]-17α-(prop-1-ynyl)-Δ^4,9(11) -estradiene-17β-ol-3-one] | – | – | negligible activity | – | – | – | oppose this effect | – | – | – | 10 | 30 | 83 | –
C=C(C)C[C@]12CCC(=O)C=C1CC[C@@H]1C2=CC[C@@]2(C)[C@H]1CC[C@@]2(O)C#CC [Example 7, 10β-(2-methyl-prop-2-en-1-yl)-17α-(prop-1-ynyl)-Δ^4,9(11) -estradien 17β-ol-3-one] | 0.4 | 0.1 | negligible activity | 226 | 112 | very marked affinity | oppose this effect | 65 | 16 | 10 | – | – | – | –
CC#C[C@]1(O)CC[C@H]2[C@@H]3CCC4=CC(=O)CC[C@]4(Sc4ccc(OC)cc4)C3=CC[C@@]21C [Example 10, 10β-[(4-methoxyphenyl)-thio]-17α-(prop-1-ynyl)-Δ^4,9(11) -estradien-17β-ol-3-one] | 0.9 | 0.5 | negligible activity | 218 | 152 | very marked affinity | oppose this effect | – | – | – | – | – | – | –
CC#C[C@]1(O)CC[C@H]2[C@@H]3CCC4=CC(=O)CC[C@]4(Cc4ccccc4F)C3=CC[C@@]21C [Example 12, 10β-[2-fluorobenzyl]-17α-(prop-1-ynyl)-Δ^4,9(11) -estradien-17β-ol-3-one] | 0.1 | 0.1 | negligible activity | 136 | 45 | very marked affinity | oppose this effect | 67 | 12 | 6 | – | – | – | –
C[C@@H]1C[C@H]2[C@@H]3CCC4=CC(=O)C=C[C@]4(C)[C@@]3(F)[C@@H](O)C[C@]2(C)[C@@]1(O)C(=O)CO [dexamethasone, reference compound] | – | – | – | – | – | – | – | – | – | – | – | – | – | diminution in the incorporation of tritiated uridine
